From patent publication US20230390274A1 (EPIRIUM BIO INC., priority 2020, published 2023)

What follows are compounds tested against 15-PGDH/HPGD (Homo sapiens (Human), UniProt P15428) (assay: hPGDH inhibitor screening biochemical assay). Settings: 10 nM 15-PGDH/HPGD, 15 μM PGE2, 0.25 mM NAD; read-out: hPGDH: Average IC50.
Method in brief: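 10 nM recombinant 15-PGDH was preincubated with compound (10-point) for 10 min at 37° C. in 50 mM Tris-HCl pH 7.5, 0.01% Tween 20. Then 15 μM PGE2 and 0.25 mM NAD+ were added for 10 min at rt. NADH fluorescence (ex/em 340/485 nm) gave % inhibition versus 1% DMSO and a four-parameter IC50.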

Chain of 15-PGDH/HPGD (P15428 whole entry): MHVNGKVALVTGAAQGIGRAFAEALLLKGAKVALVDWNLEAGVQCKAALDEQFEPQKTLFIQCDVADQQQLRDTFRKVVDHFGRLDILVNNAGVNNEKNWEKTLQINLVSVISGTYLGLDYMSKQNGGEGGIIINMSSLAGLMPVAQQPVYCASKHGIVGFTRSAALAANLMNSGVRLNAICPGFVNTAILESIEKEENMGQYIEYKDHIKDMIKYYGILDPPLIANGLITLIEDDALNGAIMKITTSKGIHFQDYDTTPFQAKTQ

SMILES	IC50 [µM]
COc1cccc(-c2cn(C)c3cc(C(=O)N4CCC(F)CC4)cnc23)c1 [A-307, (4-fluoropiperidin-1-yl)(3-(3-methoxyphenyl)-1-methyl-1H-pyrrolo[3,2-b]pyridin-6-yl)methanone]	0.1 to 1
COc1ccccc1-c1cn(C)c2cc(C(=O)N3CCC(F)CC3)cnc12 [A-308, (4-fluoropiperidin-1-yl)(3-(2-methoxyphenyl)-1-methyl-1H-pyrrolo[3,2-b]pyridin-6-yl)methanone]	≥ 1
O=C(c1cnc2c(ccn2C2CCC(F)(F)CC2)c1)N1CCCCC1 [A-320]	≥ 1
COCCc1nc2cc(C(=O)N3CCC(F)CC3)cnc2n1-c1ccc(OC)cc1 [A-342]	≥ 1
NC(=O)c1ccc(-n2ccc3cc(C(=O)N4CCC(F)CC4)cnc32)cn1 [A-347]	< 0.1
NC(=O)c1cncc(-n2ccc3cc(C(=O)N4CCCCC4)cnc32)c1 [A-348]	< 0.1
CNC(=O)c1cncc(-n2ccc3cc(C(=O)N4CCCCC4)cnc32)c1 [A-349]	< 0.1
CN(C)C(=O)c1cncc(-n2ccc3cc(C(=O)N4CCCCC4)cnc32)c1 [A-350]	< 0.1
N#Cc1cncc(-n2ccc3cc(C(=O)N4CCCCC4)cnc32)c1 [A-351]	< 0.1

Second part, the compound after the results:

IC50 [µM]	SMILES
< 0.1	CC(C)(C#N)c1cncc(-n2ccc3cc(C(=O)N4CCC(F)(F)CC4)cnc32)c1 [A-289, 2-(5-(5-(4,4-difluoropiperidine-1-carbonyl)-1H-pyrrolo[2,3-b]pyridin-1-yl)pyridin-3-yl)-2-methylpropanenitrile]
< 0.1	O=C(c1cnc2c(ccn2-c2ccc(-c3nn[nH]n3)cc2)c1)N1CCC(F)(F)CC1 [A-290, (1-(4-(2H-tetrazol-5-yl)phenyl)-1H-pyrrolo[2,3-b]pyridin-5-yl)(4,4-difluoropiperidin-1-yl)methanone]
< 0.1	O=C(c1cnc2c(ccn2-c2cccc(-c3nn[nH]n3)c2)c1)N1CCC(F)(F)CC1 [A-291, (1-(3-(2H-tetrazol-5-yl)phenyl)-1H-pyrrolo[2,3-b]pyridin-5-yl)(4,4-difluoropiperidin-1-yl)methanone]
< 0.1	O=C(c1cnc2c(ccn2-c2cncc(-c3nc[nH]n3)c2)c1)N1CCC(F)(F)CC1 [A-292, (1-(5-(1H-1,2,4-triazol-3-yl)pyridin-3-yl)-1H-pyrrolo[2,3-b]pyridin-5-yl)(4,4-difluoropiperidin-1-yl)methanone]
< 0.1	CC(C)(O)CNC(=O)c1cc(Cl)cc(-n2ccc3cc(C(=O)N4CCC(F)(F)CC4)cnc32)c1 [A-293]
< 0.1	O=C(c1cnc2c(ccn2-c2cccc(C(=O)N3CC[S+]([O-])C3)c2)c1)N1CCC(F)(F)CC1 (stereo not shown) [A-294, (4,4-difluoropiperidin-1-yl)(1-(3-(1-oxidothiazolidine-3-carbonyl)phenyl)-1H-pyrrolo[2,3-b]pyridin-5-yl)methanone]
< 0.1	O=C(c1cnc2c(c1)c(Cl)cn2-c1cnccn1)N1CCC(F)CC1 [A-295]
< 0.1	Cc1cncc(-n2cc(Cl)c3cc(C(=O)N4CCC(F)CC4)cnc32)n1 [A-296, (3-chloro-1-(6-methylpyrazin-2-yl)-1H-pyrrolo[2,3-b]pyridin-5-yl)(4-fluoropiperidin-1-yl)methanone]
< 0.1	O=C(c1cnc2c(ccn2-c2ccc3c(c2)OCO3)c1)N1CCC(F)CC1 [A-298]
< 0.1	COc1ccc(-n2c(C)nc3cc(C(=O)N4CCC(F)CC4)ccc32)cc1 [A-303]
< 0.1	COc1ccc(-n2ccc3cc(C(=O)N4CCC(F)CC4)ccc32)cc1 [A-304]
< 0.1	COc1ccc(-n2cc(C)c3cc(C(=O)N4CCC(F)CC4)ccc32)cc1 [A-305, (4-fluoropiperidin-1-yl)(1-(4-methoxyphenyl)-3-methyl-1H-indol-5-yl)methanone]
< 0.1	CCc1nc2cc(C(=O)N3CCC(F)CC3)ccc2n1-c1ccc(OC)cc1 [A-306]
< 0.1	COc1ccc(-n2c(C)nc3cc(C(=O)N4CCCCC4)ccc32)cc1 [A-310]
< 0.1	CCC(CC)n1cnc2cc(C(=O)N3CCCCC3)ccc21 [A-311]
< 0.1	COc1ccc(-n2nnc3cc(C(=O)N4CCC(F)CC4)ccc32)cc1 [A-312, (4-fluoropiperidin-1-yl)(1-(4-methoxyphenyl)-1H-benzo[d][1,2,3]triazol-5-yl)methanone]

IC50 [µM]	SMILES
< 0.1	COc1ccc(-n2nnc3cc(C(=O)N4CCCCC4)ccc32)cc1 [A-313, (1-(4-methoxyphenyl)-1H-benzo[d][1,2,3]triazol-5-yl)(piperidin-1-yl)methanone]
< 0.1	O=C(c1cnc2c(ccn2-c2ccc3c(c2)OC(F)(F)O3)c1)N1CCCCC1 [A-317]
< 0.1	COc1ccc(-n2ccc3c(C)c(C(=O)N4CCCCC4)cnc32)cc1 [A-321]
< 0.1	COc1ccc(-n2ccc3c(C#N)c(C(=O)N4CCCCC4)cnc32)cc1 [A-323, 1-(4-methoxyphenyl)-5-(piperidine-1-carbonyl)-1H-pyrrolo[2,3-b]pyridine-4-carbonitrile]
< 0.1	COc1ccc(-n2ccc3c(N)c(C(=O)N4CCCCC4)cnc32)cc1 [A-324, (4-amino-1-(4-methoxyphenyl)-1H-pyrrolo[2,3-b]pyridin-5-yl)(piperidin-1-yl)methanone]
< 0.1	O=C(c1ccc2c(cnn2-c2cncc(Cl)c2)c1)N1CCCCC1 [A-325]
< 0.1	COc1ccc(-n2c(CCC(C)(C)O)cc3cc(C(=O)N4CCCCC4)cnc32)cc1 [A-326, (2-(3-hydroxy-3-methylbutyl)-1-(4-methoxyphenyl)-1H-pyrrolo[2,3-b]pyridin-5-yl)(piperidin-1-yl)methanone]
< 0.1	CN(C)c1ccc(-n2ccc3cc(C(=O)N4CCC(F)CC4)cnc32)cc1 [A-327]
< 0.1	O=C(c1cnc2c(ccn2-c2cncc(-c3n[nH]c(C4CC4)n3)c2)c1)N1CCC(F)(F)CC1 [A-332, (1-(5-(5-cyclopropyl-1H-1,2,4-triazol-3-yl)pyridin-3-yl)-1H-pyrrolo[2,3-b]pyridin-5-yl)(4,4-difluoropiperidin-1-yl)methanone]
< 0.1	O=C(c1cnc2c(ccn2-c2ccc(-c3n[nH]c(C4CC4)n3)nc2)c1)N1CCC(F)(F)CC1 [A-333, (1-(6-(5-cyclopropyl-1H-1,2,4-triazol-3-yl)pyridin-3-yl)-1H-pyrrolo[2,3-b]pyridin-5-yl)(4,4-difluoropiperidin-1-yl)methanone]
< 0.1	O=C(c1cnc2c(ccn2-c2ccc(-c3nnc(C(F)(F)F)[nH]3)nc2)c1)N1CCC(F)(F)CC1 [A-334, (4,4-Difluoropiperidin-1-yl)(1-(6-(5-(trifluoromethyl)-4H-1,2,4-triazol-3-yl)pyridin-3-yl)-1H-pyrrolo[2,3-b]pyridin-5-yl)methanone]
< 0.1	CC(C)(C)c1ccc(NC(=O)c2cncc(-n3ccc4cc(C(=O)N5CCC(F)(F)CC5)cnc43)c2)cn1 [A-335, N-(6-(tert-butyl)pyridin-3-yl)-5-(5-(4,4-difluoropiperidine-1-carbonyl)-1H-pyrrolo[2,3-b]pyridin-1-yl)nicotinamide]
< 0.1	CC(C)(O)CCc1cc2cc(C(=O)N3CCC(F)(F)CC3)cnc2n1-c1ccc(C(=O)O)cc1 [A-336, 4-(5-(4,4-difluoropiperidine-1-carbonyl)-2-(3-hydroxy-3-methylbutyl)-1H-pyrrolo[2,3-b]pyridin-1-yl)benzoic acid]
< 0.1	Cc1nc(-c2ccc(-n3c(CCC(C)(C)O)cc4cc(C(=O)N5CCC(F)(F)CC5)cnc43)cc2)no1 [A-337, (4,4-difluoropiperidin-1-yl)(2-(3-hydroxy-3-methylbutyl)-1-(4-(5-methyl-1,2,4-oxadiazol-3-yl)phenyl)-1H-pyrrolo[2,3-b]pyridin-5-yl)methanone]
< 0.1	C[C@H]1CCCN(C(=O)c2cnc3c(ccn3-c3ccc(C(=O)O)cc3)c2)C1 [A-339, (S)-4-(5-(3-methylpiperidine-1-carbonyl)-1H-pyrrolo[2,3-b]pyridin-1-yl)benzoic acid]
< 0.1	NC(=O)c1cncc(-n2ccc3cc(C(=O)N4CCC(F)CC4)cnc32)c1 [A-346]

Same assay, conditions: Table 1, PGDH inhibitors with a 6-5 ring core; read-out: hPGDH: IC50

SMILES	IC50 [µM]
COc1ccc(-n2cnc3cc(C(=O)N4CCC(F)(F)CC4)cnc32)cc1 [drawing 78]	0.0574
COc1ccc(-n2cnc3cc(C(=O)N4CCC(F)CC4)cnc32)cc1 [drawing 79]	0.0195
COc1ccc(-n2cnc3cc(C(=O)N4CCCCC4)cnc32)cc1 [drawing 80]	0.0201
O=C(c1cnc2c(ccn2-c2cnccn2)c1)N1CCCCC1 [drawing 81]	0.0006
O=C(c1ccc2c(c1)ncn2-c1ccc(O)c(Cl)c1)N1CCCCC1 [drawing 82]	0.0025
O=C(c1ccc2c(c1)ncn2-c1cccc(Cl)c1)N1CCC(F)(F)C1 [drawing 83]	1.26
O=C(c1ccc2c(c1)ncn2-c1cccc(Cl)c1)N1CCC(O)C1 (stereo not shown) [drawing 84]	2.87
NC(=O)CCc1nc2cc(C(=O)N3CCCCC3)ccc2n1-c1cccc(Cl)c1 [drawing 85]	0.0449
O=C1CCN(C(=O)c2ccc3c(c2)ncn3-c2cccc(Cl)c2)C1 [drawing 88]	4.54
Cc1nc2cc(C(=O)N3CCCCC3)ccc2n1-c1cccc(Cl)c1 [drawing 89]	0.0056
O=C(c1ccc2c(c1)ncn2-c1cccc(Cl)c1)N1CCC(Cl)C1 (stereo not shown) [drawing 90]	0.0647
O=C(c1ccn2c(-c3cccc(Cl)c3)cnc2c1)N1CCCCC1 [drawing 93]	0.0057
O=C(c1ccc2c(c1)ncn2-c1cccc(Cl)c1)N1CCC(F)(F)CC1 [drawing 96]	0.0122
O=C(c1ccc2c(c1)ncn2-c1cccc(Cl)c1)N1CC2CCC(C2)C1 [drawing 97]	0.0466
O=C(c1ccc2c(c1)ncn2-c1cccc(Cl)c1)N1CCCCC1 [drawing 98]	0.0027
O=C(c1ccc2c(c1)ncn2-c1cccc(Cl)c1)N1CC2(CCC2)C1 [drawing 99]	0.0439
O=C(c1ccc2c(c1)ncn2-c1cccc(Cl)c1)N1CCCCCC1 [drawing 101]	0.0032
